From ChEMBL document CHEMBL1151905, “Discovery of 5-substituted 2-amino-4-chloro-8-((4-methoxy-3,5-dimethylpyridin-2-yl)methyl)-7,8-dihydropteridin-6(5H)-ones as potent and selective Hsp90 inhibitors” (Bioorg Med Chem Lett, 2009)
In brackets after ≈: the same amount, converted by molar mass.

What was measured:
HT-29 [1] = assay: Growth inhibition of human HT-29 cells; assay type: functional, cell-based
MCF7 [2] = assay: Growth inhibition of human MCF7 cells; assay type: functional, cell-based
[3] = Inhibition of HSP90 by fluorescence polarization assay
BT-474 = assay: Growth inhibition of human BT474 cells; assay type: functional, cell-based
SK-BR-3 = assay: Growth inhibition of human SKBR3 cells; assay type: functional, cell-based
Heat shock protein HSP90 = Heat shock protein HSP90 (Homo sapiens, UniProt P07900+P08238); assay: Inhibition of HSP90 in human SKBR3 cells assessed as induction of Her2 degradation; assay type: cell-based; conditions: sk-br-3
HMEC [4] = assay: Growth inhibition of HMEC cells; assay type: cell-based; conditions: Homo sapiens
HMEC [5] = assay: Selectivity index, ratio of IC50 for HMEC cells to IC50 for human SKBR3 cells; assay type: functional
HT-29 [6] = assay: Selectivity index, ratio of IC50 for HMEC cells to IC50 for human HT-29 cells; assay type: functional
HMEC [7] = assay: Selectivity index, ratio of IC50 for HMEC cells to IC50 for human BT474 cells; assay type: functional
MCF7 [8] = assay: Selectivity index, ratio of IC50 for HMEC cells to IC50 for human MCF7 cells; assay type: functional
[9] = Aqueous solubility at pH 3; assay type: physicochemical
[10] = Metabolic stability in rat liver microsomes; assay type: ADME, Microsome
[11] = Metabolic stability in mouse liver microsomes; assay type: ADME, Microsome
[12] = Oral bioavailability in rat; assay type: ADME, organism-based; conditions: in vivo
[13] = Metabolic stability in human liver microsomes; assay type: ADME, Microsome

SMILES | IC50 (HT-29 [1]) [nM] | IC50 (MCF7 [2]) [nM] | IC50 [3] [nM] | IC50 (BT-474) [nM] | IC50 (SK-BR-3) [nM] | IC50 (Heat shock protein HSP90) [nM] | further results
COc1c(C)cnc(CN2c3nc(N)nc(Cl)c3NC(=O)[C@H]2C)c1C | 470 | 790 | 400 | 410 | 220 | 350 | 
COc1c(C)cnc(CN2CC(=O)N(CCN3CCCC3)c3c(Cl)nc(N)nc32)c1C | 1080 | 1320 | 660 | 520 | 300 | 510 | 
COc1c(C)cnc(CN2CC(=O)N(C3CCCC3)c3c(Cl)nc(N)nc32)c1C | 330 | 820 |  | 290 | 120 | 110 | 
COc1c(C)cnc(CN2CCNc3c(Cl)nc(N)nc32)c1C |  |  | > 5000 |  |  | > 5000 | 
COc1c(C)cnc(CN2CC(=O)N(C(=O)NCCN3CCOCC3)c3c(Cl)nc(N)nc32)c1C | 1200 | 2140 |  | > 100000 | > 5000 | > 10000 | 
COc1ccnc(CN2CC(=O)N(CC(C)C)c3c(Cl)nc(N)nc32)c1OC | 40 | 100 |  | 30 | 10 | 160 | IC50 (HMEC [4]): 240 nM; Ratio IC50 (HMEC [5]): 6; Ratio IC50 (HT-29 [6]): 6; Ratio IC50 (HMEC [7]): 6; Ratio IC50 (MCF7 [8]): 2
COc1c(C)cnc(Cn2c(=O)c(=O)[nH]c3c(Cl)nc(N)nc32)c1C |  |  |  |  |  | > 5000 | 
COc1c(C)cnc(CN2CC(=O)N(CCCN3CCOCC3)c3c(Cl)nc(N)nc32)c1C | 2950 | 2590 |  | 1810 | 1110 | 1550 | 
COc1nc(CN2CC(=O)N(CC(C)C)c3c(Cl)nc(N)nc32)c(Cl)c(OC)c1OC |  |  |  |  |  | > 5000 | 
COc1c(C)cnc(CN2CC(=O)Nc3c(Cl)nc(N)nc32)c1C | 1180 | 1490 | 880 | 650 | 390 | 570 | solubility [9]: 381 µM (≈ 133 µg/mL); half-life [10]: > 1 h; half-life [11]: > 1 h; bioavailability [12]: 60%; half-life [13]: > 1 h
COc1c(C)cnc(CN2CC(OC3CCCC3)=Nc3c(Cl)nc(N)nc32)c1C | 20 | 40 |  | 10 | 5 | 10 | 
COc1c(C)cnc(CN2CC(=O)N(C)c3c(Cl)nc(N)nc32)c1C | 1470 | 2190 | 960 | 950 | 460 | 930 | 
COc1c(C)cnc(CN2CC(=O)N(C(C)C(=O)NCCN(C)C)c3c(Cl)nc(N)nc32)c1C (stereo not drawn) | 100 | 120 |  | 60 | 30 | 100 | 
COc1c(C)cnc(CN2c3nc(N)nc(Cl)c3NC(=O)[C@@H]2CCO)c1C |  |  | 640 |  |  | 280 | 
COc1c(C)cnc(CN2c3nc(N)nc(Cl)c3NC(=O)[C@@H]2C)c1C | 660 | 940 |  | 470 | 250 | 430 | 
COc1c(C)cnc(Cn2c(=O)cnc3c(Cl)nc(N)nc32)c1C |  |  |  |  |  | > 10000 | 

Second part, led by results:

IC50 (HT-29 [1]) [nM] | IC50 (MCF7 [2]) [nM] | IC50 [3] [nM] | IC50 (BT-474) [nM] | IC50 (SK-BR-3) [nM] | IC50 (Heat shock protein HSP90) [nM] | SMILES | further results
60 | 50 | 70 | 30 | 20 | 50 | COc1c(C)cnc(CN2CC(=O)N(C(C)C)c3c(Cl)nc(N)nc32)c1C | IC50 (HMEC [4]): 320 nM
 |  |  |  |  | 1070 | COc1nc(N)nc2c1N(CC(C)C)C(=O)CN2Cc1ncc(C)c(OC)c1C | 
 |  |  |  |  | > 5000 | COc1c(C)cnc(CN2c3nc(N)nc(Cl)c3N(CC(C)C)C(=O)[C@@H]2C)c1C | 
40 | 70 | 50 | 20 | 10 | 40 | COc1c(C)cnc(CN2CC(=O)N(CC(C)C)c3c(Cl)nc(N)nc32)c1C | IC50 (HMEC [4]): 130 nM; Ratio IC50 (HMEC [5]): 13; Ratio IC50 (HT-29 [6]): 3; Ratio IC50 (HMEC [7]): 6; Ratio IC50 (MCF7 [8]): 2
 |  |  |  |  | > 5000 | COc1c(C)cnc(CN2c3nc(N)nc(Cl)c3N(CC(C)C)C(=O)[C@@H]2C(C)C)c1C | 
280 | 470 |  | 240 | 110 | 590 | Cc1cnc(CN2CC(=O)N(CC(C)C)c3c(Cl)nc(N)nc32)c(C)c1Cl | 
 |  |  |  |  | 980 | COc1c(C)cnc(CN2CC(=O)N(CC(C)C)c3c(C)nc(N)nc32)c1C | 
690 | 930 |  | 490 | 230 | 370 | COc1c(C)cnc(CN2c3nc(N)nc(Cl)c3NC(=O)[C@@H]2CC(C)C)c1C | 
1060 | 1600 | 2140 | 760 | 430 | 650 | COc1c(C)cnc(CN2c3nc(N)nc(Cl)c3NC(=O)[C@@H]2C(C)C)c1C | 
140 | 280 | 60 | 130 | 60 | 100 | Cc1cnc(CN2CC(=O)N(CC(C)C)c3c(Cl)nc(N)nc32)c(C)c1Br | IC50 (HMEC [4]): 180 nM
2260 | 3110 | 900 | 1650 | 970 | 1910 | COc1c(C)cnc(CN2CC(=O)N(CCCC(C)C)c3c(Cl)nc(N)nc32)c1C | 
90 | 40 | 80 | 20 | 5 | 60 | COc1c(C)cnc(CN2c3nc(N)nc(Cl)c3N(C(C)C)C(=O)[C@@H]2C(C)C)c1C | 
